Data published in US9884851B2, “Heterocycle-bisamide inhibitors of scavenger receptor BI” (THE BROAD INSTITUTE, INC., priority 2012, dated 2018).
Positions count from the first letter of the chain named. “Also recorded” adds a separate entry of the source.

How the values were obtained:
[1] = target: T1, C384S SR-BI (Mus musculus, UniProt Q61009, C384S); assay: Radioactive HDL uptake assay (mutant SR-BI); assay type: cell-based, murine; conditions: Cys384 converted to serine
T1 construct: expressed in transfected cells; host or cells: CHO cell line lacking LDL receptors, overexpressing C384S SR-BI
T1 sequence (Q61009 1-509 C384S): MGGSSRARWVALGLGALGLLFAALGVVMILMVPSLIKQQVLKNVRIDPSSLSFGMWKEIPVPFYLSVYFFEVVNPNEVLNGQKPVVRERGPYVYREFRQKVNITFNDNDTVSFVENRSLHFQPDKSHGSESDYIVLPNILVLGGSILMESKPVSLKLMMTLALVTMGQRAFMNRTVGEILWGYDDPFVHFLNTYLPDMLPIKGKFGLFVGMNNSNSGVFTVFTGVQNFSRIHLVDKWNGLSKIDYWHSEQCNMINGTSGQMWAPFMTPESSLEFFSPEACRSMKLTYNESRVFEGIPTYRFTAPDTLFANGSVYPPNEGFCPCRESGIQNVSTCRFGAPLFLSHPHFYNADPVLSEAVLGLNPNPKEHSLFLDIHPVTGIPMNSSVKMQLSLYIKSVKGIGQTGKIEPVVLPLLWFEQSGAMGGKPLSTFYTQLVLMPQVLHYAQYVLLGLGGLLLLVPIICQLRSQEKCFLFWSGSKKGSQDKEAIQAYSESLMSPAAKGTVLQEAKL
From the text: Radioactive HDL Uptake Assay (mutant SR-BI) (SA 9: AID No. 588837)
BLT-1 is known to interact at cysteine 384 of SR-BI (16). […] This assay is used to determine if the compounds work in a similar fashion to BLT-1 and require Cys384 to alter the binding of HDL particles and uptake of the lipid to the mutant SR-BI scavenger receptor, using an alternative means of labeling HDL particles and avoiding any type of fluorescence measurement. To measure this lipid uptake event, HDL particles are labeled with [^3H]cholesteryl ester and added to C384S SR-BI cells. Cells take up HDL lipid via the mutant SR-BI in 2 to 3 hours. After significant uptake of the HDL lipid, the radiolabel can be detected by liquid scintillation counting. The level of radioactivity correlates with the amount of HDL lipid uptake. The uptake of lipid from HDL particles can be inhibited by the compound BLT-1 or when co-treated with an excess of unlabeled HDL. The mSR-BI cells utilized in the assay are a CHO cell line lacking expression of the LDL receptors and overexpressing the mutant scavenger receptor, C384S SR-BI.

[2] = target: T2, SR-BI (Mus musculus, UniProt Q61009); assay: DiI-HDL uptake assay with washout; assay type: cell-based, murine; parameters: expressed in transfected cells; host or cells: ldlA[mSR-BI], Chinese hamster ovary (CHO) cells lacking LDL receptor (Krieger Laboratory); conditions: compound pretreatment, wash, DiI-HDL without compound
T2 sequence (Q61009 1-509): T1 sequence (Q61009 1-509 C384S) with S384C
Experimental: DiI-HDL Uptake Assay with Washout (SA 5: AID No. 588831)
This is a modification of the primary assay where cells are pretreated with compound but no compound is present during the DiI-HDL treatment period. ldlA[mSR-BI] cells were plated into 384-well plates at 30 μl per well and incubated overnight. Cells were treated with compound for 3 hours, then media were removed and the cells were washed with PBS before fresh lipoprotein-free media (Ham's F12/0.5% fatty acid-free Bovine Serum Albumin [BSA]/25 mM HEPES pH 7.4) was added with 10 μg protein/ml DiI-HDL. Cells took up the DiI via SR-BI over 3 hours in the absence of compound. After significant uptake of the DiI, the cells became fluorescent. The level of fluorescence correlates with the amount of DiI uptake and can be measured with a standard plate reader. The uptake of lipid (represented by DiI) was inhibited by the compound BLT-1.

[3] = tested on: hepatitis C virus (HCV); assay: In vitro testing with Huh-7.5 cells infected with HCV; assay type: cell-based; conditions: for inhibition of HCV replication (in words): Huh-7.5 cells infected with Jcl 378-1 TagRFP (MOI=0.1), 3 dpi
Experimental: A series of tests were conducted using the compound of Formula II (CID53393835/ML279), other known inhibitors of SR-BI and controls with cells infected with hepatitis C virus (HCV). The cells (Huh-7.5 cells infected with Jcl 378-1 TagRFP (MOI=0.1) 3 dpi) were treated with the following SR-BI compounds and controls:
Three different infection protocols were followed: (1) no wash—virus inoculum was removed 4hpi and fresh medium containing compounds added without washing cells; (2) 5× wash—virus inoculum was removed 4hpi, cells were washed 5× with PBS and fresh medium containing compounds added; and (3) no wash Opt—infection were performed in serum-free OptiMem; virus inoculum was removed 4hpi and fresh medium containing compounds added without washing cells. FIG. 90 provides a comparison of the three different infection set-ups. FIG. 91 provides a comparison of two independent experiments.

SMILES | uptake of HDL in C384S mutant background (in words) [1] | reversibility of inhibition / activity after washout (in words) [2] | inhibition of HCV replication (in words) ([3]; listed as 8) | inhibition of HCV replication (in words) ([3]; listed as SRB1-8) | mean fluorescence intensity (MFI) of HCV positive cells (in words) ([3]; dose dependence) | reversibility of inhibition / activity after washout (in words) ([2]; listed as compound of Formula (II)) | inhibition of HCV replication (in words) ([3]; listed as 5) | inhibition of HCV replication (in words) ([3]; listed as SRB1-5) | inhibition of virus assembly/egress (in words) ([3]; fluorescence intensity of HCV positive cells normalized to DMSO)
CCCCCCC1CCCC1=NNC(N)=S (centres unmarked) [BLT-1, reference compound] | cannot reduce uptake of HDL or efflux of cholesterol | nonreversible covalent modifier of SR-BI | able to inhibit HCV replication | inhibited viral replication | increased mean fluorescence intensity (MFI) of HCV positive cells in a dose dependent manner | – | – | – | –
C[C@H](C(=O)NC1CCCC1)N(C(=O)Cn1nnc(-c2ccc3c(c2)OCO3)n1)C1CCCCC1 [ML279, (R)-2-(2-(5-(Benzo[d][1,3]dioxol-5-yl)-2H-tetrazol-2-yl)-N-cyclohexylacetamido)-N-cyclopentylpropanamide] | can reduce uptake and efflux in the mutant background | reversible binder of SR-BI; also recorded: greatly attenuated; also recorded: reversible inhibitor of HDL uptake; also recorded: showed no inhibition | – | – | – | reversible inhibitor | able to inhibit HCV replication | inhibited viral replication | can also inhibit virus assembly/egress
